Measured values from patent publication US11370774B2, “Substituted benzofuran, benzopyrrole, benzothiophene, and structurally related complement inhibitors” (BioCryst Pharmaceuticals, Inc., priority 2018, dated 2022).

Each compound was assayed against Factor D (Homo sapiens (Human), UniProt P00746) (assay: Factor D esterolytic assay (Z-Lys-SBzl substrate, DTNB, 405 nm)). Settings: Z-Lys-SBzl 1.29 mM, pH 7.5, 10% DMSO, tested a minimum of three times, read-out: Measured Ki (IC50) Value for Compounds: IC50.
Type: biochemical
In short: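 Thioester hydrolysis (Z-Lys-SBzl, 1.29 mM) by human Factor D ([…]) detected through DTNB color at 405 nm over 600 sec, minus 690 nm background. Buffer: 100 mM HEPES pH 7.5, 500 mM NaCl, 10% DMSO; optional room-temperature preincubation before substrate. IC50 derived from percent rate inhibition; at least three runs.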

Chain of Factor D (P00746 26-253): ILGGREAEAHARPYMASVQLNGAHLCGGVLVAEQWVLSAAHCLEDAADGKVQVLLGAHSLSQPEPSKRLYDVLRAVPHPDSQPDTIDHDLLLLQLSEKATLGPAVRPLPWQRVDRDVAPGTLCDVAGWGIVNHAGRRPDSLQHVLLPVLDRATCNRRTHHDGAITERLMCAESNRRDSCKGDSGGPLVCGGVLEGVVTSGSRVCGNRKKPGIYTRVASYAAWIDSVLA

| SMILES | IC50 [nM] |
| --- | --- |
| Cc1ccc(CC(=O)O)c(OCc2cc(-c3cccc(CN)c3F)c3occc3c2F)c1 [Compound 348b, 2-(2-((7-(3-(aminomethyl)-2-fluorophenyl)-4-fluorobenzofuran-5-yl)methoxy)-4-methylphenyl)acetic acid] | < 1000 |
| NCc1cccc(-c2cc(COc3ccccc3CC(=O)O)cc3oc(Cl)cc23)c1F [Compound 24b, 2-(2-((4-(3-(aminomethyl)-2-fluorophenyl)-2-chlorobenzofuran-6-yl)methoxy)phenyl)acetic acid] | < 1000 |
| CC(C)Cc1cc2cc(COc3ccccc3CC(=O)O)cc(-c3ccnc(CN)c3F)c2o1 [Compound 220g, 2-(2-((7-(2-(aminomethyl)-3-fluoropyridin-4-yl)-2-isobutylbenzofuran-5-yl)methoxy)phenyl)acetic acid] | < 1000 |
| NCc1cc(-c2cc(COc3ccccc3CC(=O)O)cc3ccsc23)ccn1 [Compound 310c, 2-(2-((7-(2-(aminomethyl)pyridin-4-yl)benzo[b]thiophen-5-yl)methoxy)phenyl)acetic acid] | < 1000 |
| NCc1cccc(-c2cc(COc3ccccc3CC(=O)O)cc3cc(CN)oc23)c1 [Compound 406e, 2-(2-((2-(aminomethyl)-7-(3-(aminomethyl)phenyl)benzofuran-5-yl)methoxy)phenyl)acetic acid] | < 1000 |
| COCc1cc2cc(COc3cc(C)ccc3CC(=O)O)cc(-c3cccc(CN)c3)c2o1 [Compound 415e, 2-(2-((7-(3-(aminomethyl)phenyl)-2-(methoxymethyl)benzofuran-5-yl)methoxy)-4-methylphenyl)acetic acid] | < 1000 |
| COCc1cc2cc(COc3ccccc3CC(=O)O)cc(-c3ccnc(CN)c3)c2o1 [Compound 132b, 2-(2-((7-(2-(aminomethyl)pyridin-4-yl)-2-(methoxymethyl)benzofuran-5-yl)methoxy)phenyl)acetic acid] | < 1000 |
| COc1ccc(CC(=O)O)c(OCc2cc(-c3ccnc(CN)c3)c3ccn(C(C)C)c3c2)c1 [Compound 447d, 2-(2-((4-(2-(aminomethyl)pyridin-4-yl)-1-isopropyl-1H-indol-6-yl)methoxy)-4-methoxyphenyl)acetic acid] | < 1000 |
| NCc1cncc(-c2cc(COc3ccccc3CC(=O)O)cc3ccoc23)c1 [Compound 106c, 2-(2-((7-(5-(aminomethyl)pyridin-3-yl)benzofuran-5-yl)methoxy)phenyl)acetic acid] | 1000 to 10000 |
| N[C@H](c1cc(-c2cc(COc3ccccc3CC(=O)O)cc3ccoc23)ccn1)C(F)(F)F [Compound 380e, (R)-2-(2-((7-(2-(1-amino-2,2,2-trifluoroethyl)pyridin-4-yl)benzofuran-5-yl)methoxy)phenyl)acetic acid] | > 10000 |
| NCc1cccc(-c2cc(COc3ccccc3CC(=O)O)cc3cc(CNCc4cccnc4)oc23)c1 [Compound 281c, 2-(2-((7-(3-(aminomethyl)phenyl)-2-(((pyridin-3-ylmethyl)amino)methyl)benzofuran-5-yl)methoxy)phenyl)acetic acid] | < 1000 |
| NCc1nccc(-c2cc(COc3cc(F)ccc3CC(=O)O)cc3c(C(F)(F)F)coc23)c1F [Compound 490c, 2-(2-((7-(2-(aminomethyl)-3-fluoropyridin-4-yl)-3-(trifluoromethyl)benzofuran-5-yl)methoxy)-4-fluorophenyl)acetic acid] | < 1000 |
| NC(CF)c1cc(-c2cc(COc3ccccc3CC(=O)O)cc3ccoc23)ccn1 (single isomer, unassigned; (+)) [Compound 327d, (+)-2-(2-((7-(2-(1-amino-2-fluoroethyl)pyridin-4-yl)benzofuran-5-yl)methoxy)phenyl)acetic acid] | < 1000 |
| NCc1cccc(-c2cc(COc3cc(-c4ccccc4)ccc3CC(=O)O)cc3ccoc23)c1 [Compound 263c, 2-(3-((7-(3-(aminomethyl)phenyl)benzofuran-5-yl)methoxy)-[1,1′-biphenyl]-4-yl)acetic acid] | < 1000 |
| Cn1ncc2c(-c3ccnc(CN)c3F)cc(COc3ccccc3CC(=O)O)cc21 [Compound 151c, 2-(2-((4-(2-(aminomethyl)-3-fluoropyridin-4-yl)-1-methyl-1H-indazol-6-yl)methoxy)phenyl)acetic acid] | < 1000 |
| Cc1cc2c(-c3cccc(CN)c3F)cc(COc3ccccc3CC(=O)O)cc2o1 [Compound 409f, 2-(2-((4-(3-(aminomethyl)-2-fluorophenyl)-2-methylbenzofuran-6-yl)methoxy)phenyl)acetic acid] | < 1000 |
| NCc1cccc(-c2cc(COc3cc(CO)ccc3CC(=O)O)cc3ccoc23)c1 [Compound 361c, 2-(2-((7-(3-(aminomethyl)phenyl)benzofuran-5-yl)methoxy)-4-(hydroxymethyl)phenyl)acetic acid] | < 1000 |
| NCc1cccc(-c2cc(COc3ccccc3CC(=O)O)cc3ccoc23)n1 [Compound 79c, 2-(2-((7-(6-(aminomethyl)pyridin-2-yl)benzofuran-5-yl)methoxy)phenyl)acetic acid] | < 1000 |
| NCc1cccc(-c2cc(C(=O)Nc3ccccc3CC(=O)O)nc3[nH]ccc23)c1 [Compound 14d, 2-(2-(4-(3-(aminomethyl)phenyl)-1H-pyrrolo[2,3-b]pyridine-6-carboxamido)phenyl)acetic acid] | 1000 to 10000 |
| NCc1cccc(-c2nc(C(=O)Nc3ccccc3CC(=O)O)c3cccn3n2)c1F [Compound 34f, 2-(2-(2-(3-(aminomethyl)-2-fluorophenyl)pyrrolo[2,1-f][1,2,4]triazine-4-carboxamido)phenyl)acetic acid] | < 1000 |
| COc1cccc(CC(=O)O)c1OCc1cc(-c2cccc(CN)c2F)c2occc2c1 [Compound 508b, 2-(2-((7-(3-(aminomethyl)-2-fluorophenyl)benzofuran-5-yl)methoxy)-3-methoxyphenyl)acetic acid] | < 1000 |
| CCOc1ccc(CC(=O)O)c(OCc2cc(-c3cccc(CN)c3)c3occc3c2)c1 [Compound 265g, 2-(2-((7-(3-(aminomethyl)phenyl)benzofuran-5-yl)methoxy)-4-ethoxyphenyl)acetic acid] | < 1000 |
| Cn1ccc2c(-c3cccc(CN)c3)cc(COc3ccccc3CC(=O)O)cc21 [Compound 50e, 2-(2-((4-(3-(aminomethyl)phenyl)-1-methyl-1H-indol-6-yl)methoxy)phenyl)acetic acid] | < 1000 |
| Cc1ccc(CC(=O)O)c(OCc2cc(-c3cccc(C(N)CF)c3)c3occc3c2)c1 (single isomer, unassigned; (+)) [Compound 269h, (+)-2-(2-((7-(3-(1-amino-2-fluoroethyl)phenyl)benzofuran-5-yl)methoxy)-4-methylphenyl)acetic acid] | < 1000 |
| NCc1cc(-c2cc(COc3ccc(F)cc3CC(=O)O)c(F)c3ccoc23)ccn1 [Compound 389c, 2-(2-((7-(2-(aminomethyl)pyridin-4-yl)-4-fluorobenzofuran-5-yl)methoxy)-5-fluorophenyl)acetic acid] | < 1000 |

Continued, values first:

| IC50 [nM] | SMILES |
| --- | --- |
| < 1000 | COCc1cc2cc(COc3cc(CN)ccc3CC(=O)O)cc(-c3cccc(CN)c3)c2o1 [Compound 445c, 2-(4-(aminomethyl)-2-((7-(3-(aminomethyl)phenyl)-2-(methoxymethyl)benzofuran-5-yl)methoxy)phenyl)acetic acid] |
| < 1000 | Cc1ccc(CC(=O)O)c(NC(=O)c2nc(-c3cc(F)cc(CN)c3)nn3cccc23)c1 [Compound 63c, 2-(2-(2-(3-(aminomethyl)-5-fluorophenyl)pyrrolo[2,1-f][1,2,4]triazine-4-carboxamido)-4-methylphenyl)acetic acid] |
| < 1000 | Cc1ccc(CC(=O)O)c(NC(=O)c2nc(-c3cccc(CN)c3F)nn3cccc23)c1 [Compound 51c, 2-(2-(2-(3-(aminomethyl)-2-fluorophenyl)pyrrolo[2,1-f][1,2,4]triazine-4-carboxamido)-4-methylphenyl)acetic acid] |
| < 1000 | N#Cc1ccc(CC(=O)O)c(OCc2cc(-c3cccc(CN)c3F)c3occc3c2)c1 [Compound 414b, 2-(2-((7-(3-(aminomethyl)-2-fluorophenyl)benzofuran-5-yl)methoxy)-4-cyanophenyl)acetic acid] |
| < 1000 | CN(C)Cc1cc2cc(COc3ccccc3CC(=O)O)cc(-c3cccc(CN)c3)c2o1 [Compound 141c, 2-(2-((7-(3-(aminomethyl)phenyl)-2-((dimethylamino)methyl)benzofuran-5-yl)methoxy)phenyl)acetic acid] |
| < 1000 | NCc1cccc(-c2cc(C(=O)Nc3ccccc3CC(=O)O)cc3[nH]ncc23)c1 [Compound 7d, 2-(2-(4-(3-(aminomethyl)phenyl)-1H-indazole-6-carboxamido)phenyl)acetic acid] |
| < 1000 | NCc1cccc(-c2cc(COc3ccccc3CC(=O)O)cc3cc(F)oc23)c1F [Compound 373b, 2-(2-((7-(3-(aminomethyl)-2-fluorophenyl)-2-fluorobenzofuran-5-yl)methoxy)phenyl)acetic acid] |
| < 1000 | NCc1cccc(-c2cc(COc3ccccc3CC(=O)O)cc3c(N)noc23)c1 [Compound 114j, 2-(2-((3-amino-7-(3-(aminomethyl)phenyl)benzo[d]isoxazol-5-yl)methoxy)phenyl)acetic acid] |
| < 1000 | NCc1cccc(-c2nc(C(=O)Nc3ccccc3CC(=O)O)nc3ccsc23)c1 [Compound 31f, 2-(2-(4-(3-(aminomethyl)phenyl)thieno[3,2-d]pyrimidine-2-carboxamido)phenyl)acetic acid] |
| < 1000 | Cc1cc2cc(COc3cc(C#N)ccc3CC(=O)O)cc(-c3cccc(CN)c3)c2o1 [Compound 419c, 2-(2-((7-(3-(aminomethyl)phenyl)-2-methylbenzofuran-5-yl)methoxy)-4-cyanophenyl)acetic acid] |
| < 1000 | NCc1cccc(-c2cc(COc3cc(F)ccc3CC(=O)O)cc3ccoc23)c1 [Compound 260g, 2-(2-((7-(3-(aminomethyl)phenyl)benzofuran-5-yl)methoxy)-4-fluorophenyl)acetic acid] |
